From paper PMC10313921, “A living ex vivo platform for functional, personalized brain cancer diagnosis” (Cell Reports Medicine, 2023)

Tests used:
Format in all cases: cell-based, human
[1] = tested on: MS21 (low-passage patient-derived GBM line); test: Drug screening of MS21 tumor foci on OBSCs; conditions: MS21 on OBSCs
Experimental: (§1) Tumor cells (0.17 μL, 25,000 cells) were seeded onto OBSCs 2h after slicing, with one tumor seeded in the center of each hemisphere for a total of two tumor foci per OBSC. BSM was changed 24h after slicing. Fluorescence images were taken 0 h, 24 h, and 96 h post-seeding for normalization of tumor size. Bioluminescence readouts were also taken at 0 h, 24 h, and 96 h post seeding for assessment of cell viability. Luciferin was added underneath the culture insert and allowed to incubate for 10 min before bioluminescence measurement on an AMI optical imaging system.
(§2) Tumor cells were seeded onto OBSCs 2h after slicing as described above. One day after tumor seeding, six concentrations of each drug were diluted in the media underneath each culture insert, or XRad was applied using an X-Rad 320 Precision X-ray machine (n = 4 tumor foci per concentration; n ≥ 24 tumor foci per drug per cell line). Three days after treatment, the bioluminescence of live tumor cells was measured using an AMI optical imager (Spectral Instruments) and dose-response curves were generated. Tumor survival was normalized to day one tumor fluorescence and compared to an untreated control group.
(§3) Several weighted parameters were factored into an overall drug sensitivity score.
(§4) For DSS parameters 1–6, therapeutic windows were calculated by comparing OBSC toxicity and tumor response at the doses where tumor kill passed through the DSS parameter (Table S1 and S3). For DSS parameter 7, the therapeutic window was calculated by comparing the slopes through the tumor EC50 and the OBSC tox EC50. For DSS parameter 8, the therapeutic window was calculated by comparing the areas under tumor kill and OBSC tox curves. Normalized therapeutic window ratios for DSS parameters 1–8 within each drug-tumor-OBSC interaction were calculated in the following manner: within each window, values ranged from +1 to −1, where values approaching +1 signify increasing tumor kill relative to normal tissue toxicity, and values approaching −1 indicate agents where tumors remained highly viable while toxicity to the normal OBSC tissue was elevated. DSS parameters 9–11 were determined based on the behavior of the tumor in response to the drug, as defined above.
(§5) All individually weighed parameters were added together to generate the DSS. Overall DSS from 0 to 100 signify increasing efficacy in tumor kill relative to OBSC toxicity, while scores from 0 to −100 describe scenarios in which tumors thrive more effectively than OBSCs for a given treatment. Dose-response values were calculated via linear interpolation of raw data, not from best-fit curve equations.

[2] = tested on: U373WT (wild-type established GBM line); test: Drug screening of U373WT tumor foci on OBSCs
Experimental: as §1, §2, §3, §4, §5

[3] = tested on: U373KO (RAD18 knockout of U373WT via CRISPR); test: Drug screening of U373KO tumor foci on OBSCs; conditions: U373 KO on OBSCs
Experimental: as §1, §2, §3, §4, §5

[4] = tested on: PDIPG (low-passage pediatric patient-derived line); test: Drug screening of PDIPG tumor foci on OBSCs; conditions: PDIPG on OBSCs
Experimental: as §1, §2, §3, §4, §5

[5] = tested on: GBM8 (high-passage patient-derived GBM line); test: Drug screening of GBM8 tumor foci on OBSCs; conditions: GBM8 on OBSCs
Experimental: as §1, §2, §3, §4, §5

[6] = tested on: LN229 (established GBM line); test: Drug screening of LN229 tumor foci on OBSCs
Experimental: as §1, §2, §3, §4, §5

[7] = tested on: MB231Br (breast cancer metastasis to brain); test: Drug screening of MB231Br tumor foci on OBSCs; conditions: MB231BR on OBSCs
[8] = tested on: 7 cell lines (MB231Br, LN229, U373WT, U373KO, GBM8, MS21, PDIPG); test: Drug screening on OBSCs, summary over the panel of seven tumor lines; conditions: number of lines responding
Experimental: as §1, §2, §3, §4, §5

[9] = area under the dose-response curve, trapezoidal rule
[10] = dose required to kill 10% of the tumor
[11] = dose required to kill 25% of the tumor
[12] = dose required to kill 50% of the tumor, read-out: EC50
[13] = dose required to kill 75% of the tumor
[14] = dose required to kill 90% of the tumor, read-out: EC90
[15] = dose required to kill 50% of the tumor
[16] = dose required to kill 90% of the tumor

## N.N.[Cl][Pt][Cl] [Cisplatin]
[1]
  Killing at highest dose: 9.99E-01 fraction of tumor population killed
[1]; [9]
  AUC: 4.20E+00
[1]; [10]
  EC10: 4.55 µM
[1]; [11]
  EC25: 11.6 µM
[1]; [12]
  EC50: 24.7 µM
[1]; [13]
  EC75: 37.9 µM
[1]; [14]
  EC90: 45.7 µM
[1]; slope through the EC50
  Slope: -1.90E-02
[2]; U373 WT on OBSCs
  Killing at highest dose: 1.00E+00 fraction of tumor population killed
[2]; U373 WT on OBSCs, area under the dose-response curve, trapezoidal rule
  AUC: 1.33E+01
[2]; U373 WT on OBSCs, dose required to kill 10% of the tumor
  EC10: 20.3 µM
[2]; U373 WT on OBSCs, dose required to kill 25% of the tumor
  EC25: 28.4 µM
[2]; U373 WT on OBSCs, dose required to kill 50% of the tumor
  EC50: 41.9 µM
[2]; U373 WT on OBSCs, dose required to kill 75% of the tumor
  EC75: 65.2 µM
[2]; U373 WT on OBSCs, dose required to kill 90% of the tumor
  EC90: 87.9 µM
[2]; U373 WT on OBSCs, slope through the EC50
  Slope: -1.85E-02
[2]; U373 WT, scale -100 to +100, tumor kill relative to OBSC toxicity
  DSS (drug sensitivity score): 62
[3]
  Killing at highest dose: 1.00E+00 fraction of tumor population killed
[3]; [9]
  AUC: 1.56E+01
[3]; [10]
  EC10: 33.2 µM
[3]; [11]
  EC25: 36.5 µM
[3]; [15]
  EC50: 42 µM
[3]; [13]
  EC75: 47.6 µM
[3]; [16]
  EC90: 114 µM
[3]; slope through the EC50
  Slope: -4.53E-02
[4]
  Killing at highest dose: 1.00E+00 fraction of tumor population killed
[4]; [9]
  AUC: 4.87E+00
[4]; [10]
  EC10: 3.17 µM
[4]; [11]
  EC25: 7.94 µM
[4]; [12]
  EC50: 16.8 µM
[4]; [13]
  EC75: 27.3 µM
[4]; [14]
  EC90: 41.5 µM
[4]; slope through the EC50
  Slope: -2.73E-02
[5]
  Killing at highest dose: 1.00E+00 fraction of tumor population killed
[5]; [9]
  AUC: 1.76E-01
[5]; [10]
  EC10: 0.0906 µM
[5]; [11]
  EC25: 0.226 µM
[5]; [12]
  EC50: 0.453 µM
[5]; [13]
  EC75: 2.74 µM
[5]; [14]
  EC90: 4.2 µM
[5]; slope through the EC50
  Slope: -1.10E+00
[6]
  Killing at highest dose: 1.00E+00 fraction of tumor population killed
[6]; [9]
  AUC: 7.69E+01
[6]; [10]
  EC10: 74.6 µM
[6]; [11]
  EC25: 81.3 µM
[6]; [15]
  EC50: 92.4 µM
[6]; [13]
  EC75: 136 µM
[6]; [16]
  EC90: 205 µM
[6]; slope through the EC50
  Slope: -2.20E-03
[7]
  Killing at highest dose: 1.00E+00 fraction of tumor population killed
[7]; [9]
  AUC: 6.20E+01
[7]; [10]
  EC10: 74.1 µM
[7]; [11]
  EC25: 87.1 µM
[7]; [15]
  EC50: 125 µM
[7]; [13]
  EC75: 188 µM
[7]; [16]
  EC90: 225 µM
[7]; slope through the EC50
  Slope: -4.00E-03
[8]
  response / killing over the 7 cell lines: robust response
